In USRE48461E1, “Modulation of androgen receptor expression” (Ionis Pharmaceuticals, Inc., priority 2012, dated 2021):
Oligonucleotides are written 5' to 3', each unit as a sugar letter and its base; * is a phosphorothioate linkage, no mark a phosphodiester; rarer units and linkages stand in square brackets, end groups in braces. Plain capitals give the bases only. k = constrained ethyl (cEt); [5mC] = 5-methylcytosine; d = 2'-deoxy (DNA)

Columns and labels:
[1] = tested on: AR mRNA; test: Dose-dependent antisense inhibition of human AR in HuVEC cells (electroporation, qRT-PCR RTS3559, IC50); format: cell-based
Method in brief: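 HuVEC cells dosed with antisense oligonucleotides by electroporation and treated approximately 16 hours. AR mRNA quantified by real-time qPCR with primer probe set RTS3559 and normalised to total RNA by RIBOGREEN; IC50 from dose-response.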

[2] = tested on: AR mRNA; test: AR mRNA in LnCaP cells by free uptake (hAR_LTS00943); format: cell-based, human; settings: 24 hrs
Experimental: Cells were plated at a concentration of 4,000 cells/well in 96-well plates. ISIS oligonucleotides, specified in Table 68, were added individually at 0.02 μM, 0.10 μM, 0.50 μM, 2.50 μM, or 10.00 μM. After an incubation period of 24 hrs, mRNA levels were measured using primer probe set hAR_LTS00943.

549372 (kA*kA*kG*dT*dT*dG*dT*dA*dG*dT*dA*dG*dT*k[5mC]*kG*k[5mC]) [compound 549372]
percent inhibition of AR ([1]; 31.25 nM, HuVEC, ~16 h, Table 14): 2%
percent inhibition of AR ([1]; 46.9 nM, HuVEC, ~16 h, Table 15): 9%
percent inhibition of AR ([1]; 55.6 nM, HuVEC, ~16 h, Table 3): 22%
percent inhibition of AR ([1]; 62.5 nM, HuVEC, ~16 h, Table 14): 17%
percent inhibition of AR ([1]; 125.0 nM, HuVEC, ~16 h, Table 14): 31%
percent inhibition of AR ([1]; 166.7 nM, HuVEC, ~16 h, Table 3): 51%
percent inhibition of AR ([1]; 187.5 nM, HuVEC, ~16 h, Table 15): 41%
percent inhibition of AR ([1]; 500.0 nM, HuVEC, ~16 h, Table 3): 85%
percent inhibition of AR ([1]; 500.0 nM, HuVEC, ~16 h, Table 14): 61%
percent inhibition of AR ([1]; 750.0 nM, HuVEC, ~16 h, Table 15): 66%
percent inhibition of AR ([1]; 1000.0 nM, HuVEC, ~16 h, Table 14): 80%
percent inhibition of AR ([1]; 1500.0 nM, HuVEC, ~16 h, Table 3): 89%
percent inhibition of AR ([1]; 3000.0 nM, HuVEC, ~16 h, Table 15): 87%
IC50 ([1]; HuVEC cells, electroporation): 290 nM
inhibition of AR mRNA at 46.9 nM ([1]; HuVEC cells, electroporation, 46.9 nM ASO): 9%
inhibition of AR mRNA at 187.5 nM ([1]; HuVEC cells, electroporation, 187.5 nM ASO): 41%
inhibition of AR mRNA at 750.0 nM ([1]; HuVEC cells, electroporation, 750.0 nM ASO): 66%
inhibition of AR mRNA at 3000.0 nM ([1]; HuVEC cells, electroporation, 3000.0 nM ASO): 87%
IC50 ([1]; HuVEC, ~16 h, Table 3): 150 nM
IC50 ([1]; HuVEC, ~16 h, Table 14): 271 nM
IC50 ([1]; HuVEC, ~16 h, Table 15): 290 nM
percent inhibition of AR, 46.9 nM ([1]; Table 29, 46.9 nM, HuVEC, electroporation, approximately 16 hours): 7%
percent inhibition of AR, 187.5 nM ([1]; Table 29, 187.5 nM, HuVEC, electroporation, approximately 16 hours): 41%
percent inhibition of AR, 750.0 nM ([1]; Table 29, 750.0 nM, HuVEC, electroporation, approximately 16 hours): 70%
percent inhibition of AR, 3000.0 nM ([1]; Table 29, 3000.0 nM, HuVEC, electroporation, approximately 16 hours): 91%
IC50 ([1]; Table 29, HuVEC, electroporation, approximately 16 hours): 320 nM
percent inhibition of AR, 46.9 nM ([1]; Table 30, 46.9 nM, HuVEC, electroporation, approximately 16 hours): 13%
percent inhibition of AR, 187.5 nM ([1]; Table 30, 187.5 nM, HuVEC, electroporation, approximately 16 hours): 29%
percent inhibition of AR, 750.0 nM ([1]; Table 30, 750.0 nM, HuVEC, electroporation, approximately 16 hours): 69%
percent inhibition of AR, 3000.0 nM ([1]; Table 30, 3000.0 nM, HuVEC, electroporation, approximately 16 hours): 90%
IC50 ([1]; Table 30, HuVEC, electroporation, approximately 16 hours): 370 nM
percent inhibition of AR, 46.9 nM ([1]; Table 31, 46.9 nM, HuVEC, electroporation, approximately 16 hours): 5%
percent inhibition of AR, 187.5 nM ([1]; Table 31, 187.5 nM, HuVEC, electroporation, approximately 16 hours): 36%
percent inhibition of AR, 750.0 nM ([1]; Table 31, 750.0 nM, HuVEC, electroporation, approximately 16 hours): 69%
percent inhibition of AR, 3000.0 nM ([1]; Table 31, 3000.0 nM, HuVEC, electroporation, approximately 16 hours): 88%
IC50 ([1]; Table 31, HuVEC, electroporation, approximately 16 hours): 360 nM
percent inhibition of AR, 46.9 nM ([1]; Table 32, 46.9 nM, HuVEC, electroporation, approximately 16 hours): 15%
percent inhibition of AR, 187.5 nM ([1]; Table 32, 187.5 nM, HuVEC, electroporation, approximately 16 hours): 39%
percent inhibition of AR, 750.0 nM ([1]; Table 32, 750.0 nM, HuVEC, electroporation, approximately 16 hours): 70%
percent inhibition of AR, 3000.0 nM ([1]; Table 32, 3000.0 nM, HuVEC, electroporation, approximately 16 hours): 86%
IC50 ([1]; Table 32, HuVEC, electroporation, approximately 16 hours): 300 nM
percent inhibition of AR, 46.9 nM ([1]; Table 33, 46.9 nM, HuVEC, electroporation, approximately 16 hours): 14%
percent inhibition of AR, 187.5 nM ([1]; Table 33, 187.5 nM, HuVEC, electroporation, approximately 16 hours): 33%
percent inhibition of AR, 750.0 nM ([1]; Table 33, 750.0 nM, HuVEC, electroporation, approximately 16 hours): 64%
percent inhibition of AR, 3000.0 nM ([1]; Table 33, 3000.0 nM, HuVEC, electroporation, approximately 16 hours): 90%
IC50 ([1]; Table 33, HuVEC, electroporation, approximately 16 hours): 340 nM
percent inhibition of AR, 46.9 nM ([1]; Table 34, 46.9 nM, HuVEC, electroporation, approximately 16 hours): 14%
percent inhibition of AR, 187.5 nM ([1]; Table 34, 187.5 nM, HuVEC, electroporation, approximately 16 hours): 36%
percent inhibition of AR, 750.0 nM ([1]; Table 34, 750.0 nM, HuVEC, electroporation, approximately 16 hours): 64%
percent inhibition of AR, 3000.0 nM ([1]; Table 34, 3000.0 nM, HuVEC, electroporation, approximately 16 hours): 88%
IC50 ([1]; Table 34, HuVEC, electroporation, approximately 16 hours): 320 nM
percent inhibition of AR, 46.9 nM ([1]; Table 35, 46.9 nM, HuVEC, electroporation, approximately 16 hours): 0%
percent inhibition of AR, 187.5 nM ([1]; Table 35, 187.5 nM, HuVEC, electroporation, approximately 16 hours): 28%
percent inhibition of AR, 750.0 nM ([1]; Table 35, 750.0 nM, HuVEC, electroporation, approximately 16 hours): 64%
percent inhibition of AR, 3000.0 nM ([1]; Table 35, 3000.0 nM, HuVEC, electroporation, approximately 16 hours): 88%
IC50 ([1]; Table 35, HuVEC, electroporation, approximately 16 hours): 420 nM
percent inhibition of AR, 46.9 nM ([1]; Table 36, 46.9 nM, HuVEC, electroporation, approximately 16 hours): 2%
percent inhibition of AR, 187.5 nM ([1]; Table 36, 187.5 nM, HuVEC, electroporation, approximately 16 hours): 26%
percent inhibition of AR, 750.0 nM ([1]; Table 36, 750.0 nM, HuVEC, electroporation, approximately 16 hours): 61%
percent inhibition of AR, 3000.0 nM ([1]; Table 36, 3000.0 nM, HuVEC, electroporation, approximately 16 hours): 85%
IC50 ([1]; Table 36, HuVEC, electroporation, approximately 16 hours): 420 nM
Percent inhibition of AR mRNA ([2]; 0.02 μM): 0%
Percent inhibition of AR mRNA ([2]; 0.1 μM): 0%
Percent inhibition of AR mRNA ([2]; 0.5 μM): 21%
Percent inhibition of AR mRNA ([2]; 10 μM): 78%
